Results as given in ChEMBL document CHEMBL1671859, “bla(IMP-4) in different genetic contexts in Enterobacteriaceae isolates from Australia” (2008).

Tests used:
Type in all cases: functional
Klebsiella pneumoniae [1] = assay: Antibacterial activity against Klebsiella pneumoniae isolate Kp2730 harboring IncL/M plasmid and blaIMP-4-qacG2-aacA4-catB3 and dfrA12-orfF-aadA2 arrays by Etest method in presence of clavulanic acid
Klebsiella oxytoca [2] = assay: Antibacterial activity against Klebsiella oxytoca Ko238 transconjugant harboring IncA/C plasmid and blaIMP-4-qacG2-aacA4-catB3 array by Etest method in presence of clavulanic acid
Klebsiella pneumoniae [3] = assay: Antibacterial activity against Klebsiella pneumoniae Kp3799 transconjugant harboring IncL/M plasmid and blaIMP-4-qacG2-aacA4-catB3 array by Etest method in presence of clavulanic acid
Klebsiella pneumoniae [4] = assay: Antibacterial activity against Klebsiella pneumoniae Kp149 transconjugant harboring IncA/C plasmid and blaIMP-4-qacG2-aacA4-catB3 array by Etest method in presence of clavulanic acid
Escherichia coli [5] = assay: Antibacterial activity against Escherichia coli isolate Ec158 harboring IncA/C plasmid and blaIMP-4-qacG2-aacA4-catB3 array by Etest method in presence of clavulanic acid
Escherichia coli [6] = assay: Antibacterial activity against Escherichia coli Ec158 transconjugant harboring IncA/C plasmid and blaIMP-4-qacG2-aacA4-catB3 array by Etest method in presence of clavulanic acid
Klebsiella oxytoca [7] = assay: Antibacterial activity against Klebsiella oxytoca Ko0426 transconjugant harboring IncL/M plasmid and blaIMP-4-qacG2-aacA4-catB3 array by Etest method in presence of clavulanic acid
Citrobacter youngae = assay: Antibacterial activity against Citrobacter youngae CyB38 transconjugant harboring blaIMP-4-qacG2-aacA4-catB3 array by Etest method in presence of clavulanic acid
Serratia marcescens [8] = assay: Antibacterial activity against Serratia marcescens Sm265 transconjugant harboring IncA/C plasmid and blaIMP-4-qacG2-aacA4-catB3 array by Etest method in presence of clavulanic acid
Klebsiella pneumoniae [9] = assay: Antibacterial activity against Klebsiella pneumoniae isolate Kp149 harboring IncA/C plasmid and blaIMP-4-qacG2-aacA4-catB3 array by Etest method in presence of clavulanic acid
Klebsiella pneumoniae [10] = assay: Antibacterial activity against Klebsiella pneumoniae isolate Kp4614 in presence of clavulanic acid
Acinetobacter baumannii = assay: Antibacterial activity against Acinetobacter baumannii isolate AbN450 harboring blaIMP-4-qacG2-aacA4-catB3 array by Etest method in presence of clavulanic acid
Citrobacter amalonaticus = assay: Antibacterial activity against Citrobacter amalonaticus Ca38009 transconjugant harboring IncL/M plasmid and blaIMP-4-qacG2-aacA4-catB3 array by Etest method in presence of clavulanic acid
Klebsiella pneumoniae [11] = assay: Antibacterial activity against Klebsiella pneumoniae isolate Kp211 harboring IncA/C plasmid and blaIMP-4-qacG2-aacA4-catB3 array by Etest method in presence of clavulanic acid
Serratia marcescens [12] = assay: Antibacterial activity against Serratia marcescens isolate Sm220 harboring IncA/C plasmid and blaIMP-4-qacG2-aacA4-catB3 array by Etest method in presence of clavulanic acid

Measured: MIC

CC1(C)S[C@@H]2[C@H](NC(=O)[C@H](N)c3ccc(O)cc3)C(=O)N2[C@H]1C(=O)O [AMOXICILLIN]
> 16 µg/mL: Klebsiella pneumoniae [1] | Klebsiella oxytoca [2] | Klebsiella pneumoniae [3] | Klebsiella pneumoniae [4] | Escherichia coli [5] | Escherichia coli [6] | Klebsiella oxytoca [7] | Citrobacter youngae | Serratia marcescens [8] | Klebsiella pneumoniae [9] | Klebsiella pneumoniae [10] | Acinetobacter baumannii | Citrobacter amalonaticus | Klebsiella pneumoniae [11] | Serratia marcescens [12]
